# Source: publication PMC8921294, “Inhibition of mitochondrial LonP1 protease by allosteric blockade of ATP binding and hydrolysis via CDDO and its derivatives” (The Journal of Biological Chemistry, 2022)
# pIC50: −log10 of the molar value.
# Experiments:
# LonP1 C637V = target: T1, LonP1 C637V (Homo sapiens, UniProt P36776, C637V); test: Endpoint ATPase assay, LonP1 C637V; assay type: biochemical
# T1 construct: hexa-histidine (N); made in house; host or cells: Rosetta 2 E. coli
# T1 sequence (P36776 68-959 C637V): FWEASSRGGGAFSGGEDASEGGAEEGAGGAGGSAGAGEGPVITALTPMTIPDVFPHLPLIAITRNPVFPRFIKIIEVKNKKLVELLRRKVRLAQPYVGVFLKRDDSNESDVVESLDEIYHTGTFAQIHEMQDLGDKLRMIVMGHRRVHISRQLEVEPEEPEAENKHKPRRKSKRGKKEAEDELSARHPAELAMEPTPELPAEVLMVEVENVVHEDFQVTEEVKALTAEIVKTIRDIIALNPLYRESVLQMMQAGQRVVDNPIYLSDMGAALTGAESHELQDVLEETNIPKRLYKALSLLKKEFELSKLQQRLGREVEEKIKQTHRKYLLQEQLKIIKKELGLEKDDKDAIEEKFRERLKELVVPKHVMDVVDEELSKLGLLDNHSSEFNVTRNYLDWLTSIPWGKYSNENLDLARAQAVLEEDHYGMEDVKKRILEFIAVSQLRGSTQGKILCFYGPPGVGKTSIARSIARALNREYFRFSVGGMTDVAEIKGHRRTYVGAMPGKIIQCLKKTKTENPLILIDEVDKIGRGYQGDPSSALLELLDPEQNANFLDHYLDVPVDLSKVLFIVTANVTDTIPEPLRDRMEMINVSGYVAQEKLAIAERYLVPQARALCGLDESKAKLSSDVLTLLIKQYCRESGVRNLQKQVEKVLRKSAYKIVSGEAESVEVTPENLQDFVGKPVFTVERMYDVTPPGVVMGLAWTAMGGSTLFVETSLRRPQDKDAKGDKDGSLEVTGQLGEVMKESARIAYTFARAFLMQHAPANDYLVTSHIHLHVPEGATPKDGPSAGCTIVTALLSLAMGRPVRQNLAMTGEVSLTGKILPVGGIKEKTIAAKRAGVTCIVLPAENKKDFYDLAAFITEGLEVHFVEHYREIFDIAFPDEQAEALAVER
# Protocol: Human mitochondrial LonP1 and mutants lacking the predicted mitochondrial targeting sequence were fused to an N-terminal hexa-histidine affinity tag, expressed in Rosetta 2 E. Coli, and purified using a nickel agarose column as previously described ([72]) and protein concentration and buffer exchange carried out using Amicon Ultra centrifugal filtration. LonP1 mutant constructs were obtained from the PCR-based QuikChange Site-Directed Mutagenesis Kit.
# ADP-Glo (Promega) assays were performed according to the manufacturer's protocols. Purified wild-type or mutant LonP1 (400 nM monomer), the 26S proteasome (3 nM), or no enzyme controls were preincubated in 96-well plates (60 min, 25 °C) with ten different concentrations of CDDO and its derivatives, TP-82, enoxolone (5 μM) or DMSO vehicle control in buffer (40 mM Tris-HCl (pH 7.5), 20 mM MgCl2, 0.1 mg/ml BSA and 5% DMSO). The 26S and 20S proteasome were also assayed at 0, 0.75, 1.5, 3, 6, and 12 nM in the absence of CDDO derivatives. […] Assay reagents were used to quench further ATPase activity and generate luminescence signals proportional to the concentration of ADP formed. Background (no enzyme control) luminescence values were subtracted, and resultant values were reported as a percentage of the no drug control (100%). […]
# 26S proteasome ATPase = test system: T2, 26S proteasome ATPase; test: Endpoint ATPase assay, purified 26S proteasome; assay type: biochemical, human; conditions: 26S proteasome 3 nM, Fig. 4A
# T2 construct: purified from human embryonic kidney cells (HEK293); purchased Boston Biochem Inc.-R&D Systems E-365; host or cells: HEK293
# From the text: CDDO and CDDO-Methyl (CDDO-Me) were purchased from Cayman Chemical, CDDO-Imidazole (CDDO-Im) was purchased from Tocris. CDDO-anhydride ([20]) and TP-82 ([71]) were synthesized as reported. Other inhibitors in this study were purchased commercially: MG262 (Boston Biochem), bortezomib (LC Labs) and enoxolone (Cayman Chemical). Antibodies recognizing the following antigens were employed in this study: LonP1 (Proteintech, cat. 15440-1-AP), p53 (Calbiochem, cat. 0P43, lot # D00086815), cleaved PARP (Asp214) (BD Biosciences, cat. 552596), procaspase-3 monoclonal antibody (Transduction Laboratories, cat. C31720), actin (Santa Cruz, cat. sc-1615, lot # F0408), heme oxygenase 1 (Santa Cruz, cat. sc-136960, lot # B1516), TFAM kindly provided by Daniel Bogenhagen (Stony Brook University). Human 26S and 20S proteasome purified from human embryonic kidney cells (HEK293) were purchased commercially (Boston Biochem Inc.-R&D Systems, cat. E-365, lot # 35730210 and cat. E-360, lot # 16918510, respectively).
# ADP-Glo (Promega) assays were performed according to the manufacturer's protocols. […] Assay reagents were used to quench further ATPase activity and generate luminescence signals proportional to the concentration of ADP formed. Background (no enzyme control) luminescence values were subtracted, and resultant values were reported as a percentage of the no drug control (100%). […]
smiles,measurement,setting,value
"CC1(C)CC[C@]2(C(=O)O)CC[C@]3(C)[C@H](C(=O)C=C4[C@@]5(C)C=C(C#N)C(=O)C(C)(C)[C@@H]5CC[C@]43C)[C@@H]2C1 [CDDO, 2-cyano-3,12-dioxooleana-1,9(11)-dien-28-oic acid]",Fold increase in inhibition compared with WT,LonP1 C637V,3.8
same,pIC50,"LonP1 C637V; end-point ATPase assay, N = 1, read-out: CDDO IC50",5.43
same,Inhibition of ATP hydrolysis by the 26S proteasome,26S proteasome ATPase,failed to inhibit
